Laboratory results reported in patent publication US11642337B2, “Therapeutic agent for mental retardation or autism” (TOKYO METROPOLITAN INSTITUTE OF MEDICAL SCIENCE, priority 2017, dated 2023).

Legend:
Assay type in all cases: in vivo, mouse
[1] = system: GFAP-Cre; Tsc1^fl/fl (GFAP-Tsc1 cKO) mice; test: Three-chamber test in GFAP-Tsc1 cKO mice (abnormality of social behavior); details: single oral administration (40 mg/kg)
Protocol: By a three-chamber test, social interaction was investigated. This was carried out using an experiment device having three separated chambers between which a mouse can move freely. First, a cage containing a mouse (stranger 1 mouse) was placed in one chamber, and an empty cage was placed in another chamber (FIG. 2a). The subject mouse was placed in the middle chamber, and the length of time when the mouse stayed in each chamber (the chamber staying time in the figure, expressed in (s): seconds) was measured. Subsequently, the mouse (stranger 1 mouse) in the first cage was transferred to the empty cage, and another mouse (stranger 2 mouse) was placed in the cage that became empty (FIG. 2a). Thereafter, the length of time when the subject mouse stayed in the chamber of the first mouse (stranger 1 chamber) and the length of time when the subject mouse stayed in the chamber where the new mouse was staying (stranger 2 chamber) were measured and compared.
These mice were obtained by crossing of GFAP-Cre mice, which show astrocyte-specific Cre expression.
A suspension of 4 mg/ml lonafarnib or tipifarnib (using 1 w/v % CMC, 0.9 w/v % NaCl, and 5 v/v % DMSO as a vehicle) was prepared and orally administered at 40 mg/kg. A solution of 2 mg/ml pentylenetetrazol (PTZ) (using 0.9 w/v % NaCl as a vehicle) was prepared and intraperitoneally administered. […]

[2] = system: mice to which pentylenetetrazol was administered; test: Contextual fear discrimination test in pentylenetetrazol-treated mice (epilepsy-induced memory impairment); details: mice given pentylenetetrazol 10 times; single administration 40 mg/kg, i.p.
Tsc2^+/− mice = test: Contextual fear discrimination test in Tsc2+/- mice (memory impairment of tuberous sclerosis); details: 40 mg/kg orally, single administration six hours before FS, measured on the next day in the same box, vs vehicle group
Protocol: Tsc2^+/− mice were prepared by breeding/crossing according to a known method (Kobayashi, T., et al., Renal carcinogenesis, hepatic hemangiomatosis, and embryonic lethality caused by a germ-line Tsc2 mutation in mice. Cancer Res, 1999. 59(6): p. 1206-11).
A contextual fear discrimination test (Auerbach, B. D., E. K. Osterweil, and M. F. Bear, Mutations causing syndromic autism define an axis of synaptic pathophysiology. Nature, 2011. 480(7375): p. 63-8.) was carried out to measure the contextual fear memory of mice. More specifically, each mouse was placed in a cage for application of foot shock (FS), and FS was applied to the mouse. On the next day, the mouse was returned to the same cage (familiar condition), and the freeze time was measured (FIG. 1a). In order to investigate the effect of tipifarnib or lonafarnib (which may be hereinafter simply referred to as “active component”), a vehicle (carboxymethyl cellulose) and the active component were orally administered to mice, and FS was applied to each mouse 6 hours later. On the next day, the mouse was returned to the same cage to compare the freeze time. […]
Six hours before FS, lonafarnib (40 mg/kg) or tipifarnib (40 mg/kg) was orally administered to the Tsc2^+/− mice, and contextual fear memory was investigated (FIG. 1a). On the next day, the mice were returned to the box in which the FS was applied, and the freeze time was measured.

[3] = system: mice to which kainic acid was administered during the neonatal period; test: Three-chamber test in mice given kainic acid in the neonatal period (autism-like abnormality of social behavior); details: mice given kainic acid 1.5 mg/kg one week after birth, tested two months later; single administration 40 mg/kg, i.p.

Structure (SMILES): NC(=O)N1CCC(CC(=O)N2CCC([C@H]3c4ncc(Br)cc4CCc4cc(Cl)cc(Br)c43)CC2)CC1 [lonafarnib]
- staying time in the chamber of the stranger 2 [1]: significantly longer
- contextual fear memory (freeze time), pentylenetetrazol-induced memory impairment [2]: pentylenetetrazol-induced memory impairment could also be improved
- freeze time (contextual fear memory) (Tsc2^+/− mice): increases in the freeze behavior
- staying time in the chamber of the stranger 2 (time spent in chamber) [3]: significantly longer

Structure (SMILES): Cn1cncc1[C@@](N)(c1ccc(Cl)cc1)c1ccc2c(c1)c(-c1cccc(Cl)c1)cc(=O)n2C [tipifarnib, 6-[(R)-amino(4-chlorophenyl)(1-methyl-1H-imidazol-5-yl)methyl]-4-(3-chlorophenyl)-1-methyl-2(1H)-quinolinone]
- freeze time (contextual fear memory) (Tsc2^+/− mice): increases in the freeze behavior
